Residue numbers refer to the chain shown, from its start.

Data on eleven compounds can be found in ChEMBL document CHEMBL5214935, “Discovery of a potent M5 antagonist with improved clearance profile. Part 1: Piperidine amide-based antagonists” (Bioorg Med Chem Lett, 2022).

Tested on in one data set: not listed separately
Briefly: Intrinsic clearance in rat. The data set is classed as ADME.
Details: not given
For orientation: CLint scaled means the rate of metabolic loss divided by the concentration. For the compound `O=C(Nc1ccc2scnc2c1)C1CCN(S(=O)(=O)c2ccc3c(c2)CCO3)CC1`, the CLint scaled worked out at 373 mL/min/kg.
The same measure, in the same setting: in the case of `Cc1ncc(S(=O)(=O)N2CC[C@H](C(=O)Nc3ccc4scnc4c3)[C@@H](F)C2)s1` (racemic) it was 81 mL/min/kg; in that of `C[C@@H]1C[C@@H](C(=O)Nc2ccc3scnc3c2)CCN1S(=O)(=O)c1ccc2c(c1)CCO2` (racemic), 520 mL/min/kg; in that of `CC1COc2ccc(S(=O)(=O)N3CCC(C(=O)Nc4ccc5scnc5c4)CC3)cc21` (racemic), 1020 mL/min/kg.
Consider `Cn1ncc(S(=O)(=O)N2CC[C@H](C(=O)Nc3ccc4scnc4c3)[C@@H](F)C2)c1Cl` (racemic), for which the CLint scaled came to 49 mL/min/kg.
Same read-out and setting: the figure for `C[C@H]1CN(S(=O)(=O)c2ccc3c(c2)CCO3)CC[C@@H]1C(=O)Nc1ccc2scnc2c1` (racemic) is 506 mL/min/kg.
On the same count and under the same terms, the figure for `C[C@@H]1CN(S(=O)(=O)c2ccc3c(c2)CCO3)CC[C@@H]1C(=O)Nc1ccc2scnc2c1` (racemic) is 550 mL/min/kg; for `C[C@@H]1C[C@H](C(=O)Nc2ccc3scnc3c2)CCN1S(=O)(=O)c1ccc2c(c1)CCO2` (racemic) it is 572 mL/min/kg.

The next data set concerns the target T1, Muscarinic acetylcholine receptor M5 (Homo sapiens) (UniProt P08912).
T1 sequence (whole entry): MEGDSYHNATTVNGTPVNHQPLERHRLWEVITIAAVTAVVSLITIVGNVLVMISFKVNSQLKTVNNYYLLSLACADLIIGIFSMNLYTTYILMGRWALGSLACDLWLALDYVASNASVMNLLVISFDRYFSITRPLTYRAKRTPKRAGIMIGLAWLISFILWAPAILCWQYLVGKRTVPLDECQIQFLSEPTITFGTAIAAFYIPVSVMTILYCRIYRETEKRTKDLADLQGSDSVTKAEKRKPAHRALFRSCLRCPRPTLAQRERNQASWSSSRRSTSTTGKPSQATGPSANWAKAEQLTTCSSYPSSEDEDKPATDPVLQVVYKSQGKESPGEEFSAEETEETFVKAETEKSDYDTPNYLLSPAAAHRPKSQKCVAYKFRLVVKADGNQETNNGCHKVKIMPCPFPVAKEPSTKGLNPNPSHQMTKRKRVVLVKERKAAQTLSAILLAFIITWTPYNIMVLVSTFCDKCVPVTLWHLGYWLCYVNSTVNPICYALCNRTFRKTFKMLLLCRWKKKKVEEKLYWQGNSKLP
Briefly: Antagonist activity at human muscarinic M5 receptor expressed in CHO cells assessed as minimal acetylcholine response by calcium mobilisation assay relative to control. The data set is classed as functional, cell-based.
Details: not given
The arrangement: concentration or dose not given beside the values. In general terms: Calcium flux is commonly read through the fluorescence of an indicator in the cells.
On to `CN(C(=O)C1CCN(S(=O)(=O)c2ccc3c(c2)CCO3)CC1)c1ccc2scnc2c1`, for which the Activity came to 51%.

The data set is the same for the next values; noted with them: filed as antagonist.
On to `Cc1ncc(S(=O)(=O)N2CC[C@H](C(=O)Nc3ccc4scnc4c3)[C@@H](F)C2)s1` (racemic), for which the Activity was found to be 2%.
On the same count and under the same terms, the figure for `C[C@@H]1C[C@@H](C(=O)Nc2ccc3scnc3c2)CCN1S(=O)(=O)c1ccc2c(c1)CCO2` (racemic) is 3%.
`CC1COc2ccc(S(=O)(=O)N3CCC(C(=O)Nc4ccc5scnc5c4)CC3)cc21` (racemic): the Activity was found to be 3%.
The same measure, in the same setting: in the case of `Cn1ncc(S(=O)(=O)N2CC[C@H](C(=O)Nc3ccc4scnc4c3)[C@@H](F)C2)c1Cl` (racemic) it was 2%.
On the same count and under the same terms, in the case of `C[C@H]1CN(S(=O)(=O)c2ccc3c(c2)CCO3)CC[C@@H]1C(=O)Nc1ccc2scnc2c1` (racemic) it was 3%.
For `CC1Cc2cc(S(=O)(=O)N3CCC(C(=O)Nc4ccc5scnc5c4)CC3)ccc2O1` (racemic), the Activity was found to be 16%.
Same read-out and setting: in the case of `C[C@@H]1CN(S(=O)(=O)c2ccc3c(c2)CCO3)CC[C@@H]1C(=O)Nc1ccc2scnc2c1` (racemic) it was 3%; in that of `C[C@@H]1C[C@H](C(=O)Nc2ccc3scnc3c2)CCN1S(=O)(=O)c1ccc2c(c1)CCO2` (racemic), 2%.

Tested on in another data set: not listed separately
Put plainly: Unbound fraction in rat plasma. It counts as ADME, cell-free.
Details: not given
`Cc1ncc(S(=O)(=O)N2CC[C@H](C(=O)Nc3ccc4scnc4c3)[C@@H](F)C2)s1` (racemic) yielded a Fu of 0.007.
The same measure, in the same setting: in the case of `Cn1ncc(S(=O)(=O)N2CC[C@H](C(=O)Nc3ccc4scnc4c3)[C@@H](F)C2)c1Cl` (racemic) it was 0.005.

The target of the next data set is T2, Muscarinic acetylcholine receptor M1 (Homo sapiens, UniProt P11229).
T2 sequence (P11229 whole entry): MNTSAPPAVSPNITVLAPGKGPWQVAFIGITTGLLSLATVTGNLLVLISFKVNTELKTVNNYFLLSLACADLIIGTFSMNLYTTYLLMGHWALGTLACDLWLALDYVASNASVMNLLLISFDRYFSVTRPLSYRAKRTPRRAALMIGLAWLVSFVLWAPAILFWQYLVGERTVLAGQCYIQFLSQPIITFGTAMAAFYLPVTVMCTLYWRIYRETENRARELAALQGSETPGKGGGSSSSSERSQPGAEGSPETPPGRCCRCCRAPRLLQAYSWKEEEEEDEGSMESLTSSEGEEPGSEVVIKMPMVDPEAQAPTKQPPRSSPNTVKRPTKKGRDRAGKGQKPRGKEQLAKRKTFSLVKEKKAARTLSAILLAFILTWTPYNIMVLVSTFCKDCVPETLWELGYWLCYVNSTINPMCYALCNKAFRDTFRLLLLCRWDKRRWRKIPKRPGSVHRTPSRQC
Put plainly: Antagonist activity at human muscarinic M1 receptor. The data set is classed as functional.
Details: not given
Usually IC50 stands for the midpoint of a concentration-inhibition curve. As for `O=C(Nc1ccc2scnc2c1)C1CCN(S(=O)(=O)c2ccc(Cl)s2)CC1`, the IC50 was over 10000 nM.
In turn, `O=C(Nc1ccc2scnc2c1)C1CCN(S(=O)(=O)c2ccc3c(c2)CCO3)CC1` yielded an IC50 of 2140 nM.

Tested on in a further data set: not listed separately
Put plainly: Unbound fraction in rat brain.
Details: not given
The data set is classed as ADME, tissue-based.
Broadly, the fraction unbound is free concentration divided by total concentration. The compound `Cc1ncc(S(=O)(=O)N2CC[C@H](C(=O)Nc3ccc4scnc4c3)[C@@H](F)C2)s1` (racemic) returned a fraction unbound of 0.06.
Still for that read-out and setting: in the case of `Cn1ncc(S(=O)(=O)N2CC[C@H](C(=O)Nc3ccc4scnc4c3)[C@@H](F)C2)c1Cl` (racemic) it was 0.05.

The next data set has as its target T3, Muscarinic acetylcholine receptor M5 (Rattus norvegicus, UniProt P08911).
T3 sequence (P08911 whole entry): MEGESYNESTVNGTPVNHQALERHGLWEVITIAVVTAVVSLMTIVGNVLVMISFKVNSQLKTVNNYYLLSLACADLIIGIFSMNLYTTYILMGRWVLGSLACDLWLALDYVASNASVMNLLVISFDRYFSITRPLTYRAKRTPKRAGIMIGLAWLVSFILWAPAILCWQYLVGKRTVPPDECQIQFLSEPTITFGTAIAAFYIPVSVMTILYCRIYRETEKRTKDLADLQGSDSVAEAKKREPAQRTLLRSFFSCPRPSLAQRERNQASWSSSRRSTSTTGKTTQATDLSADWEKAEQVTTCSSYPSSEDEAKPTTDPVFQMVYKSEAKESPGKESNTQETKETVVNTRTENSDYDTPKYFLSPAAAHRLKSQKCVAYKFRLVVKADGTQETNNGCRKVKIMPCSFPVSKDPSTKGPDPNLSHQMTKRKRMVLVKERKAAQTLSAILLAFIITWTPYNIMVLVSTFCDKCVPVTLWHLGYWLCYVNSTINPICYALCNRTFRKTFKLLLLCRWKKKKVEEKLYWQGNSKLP
Briefly: Antagonist activity at rat muscarinic M5 receptor.
Details: not given
The data set is classed as functional.
`O=C(Nc1ccc2scnc2c1)C1CCN(S(=O)(=O)c2ccc3c(c2)CCO3)CC1` gave an IC50 of 249 nM.

Tested on in another data set: not listed separately
Briefly: Unbound fraction in human plasma.
Details: not given
It counts as ADME, cell-free.
In the case of `Cc1ncc(S(=O)(=O)N2CC[C@H](C(=O)Nc3ccc4scnc4c3)[C@@H](F)C2)s1` (racemic), the Fu stood at 0.02.
Same read-out and setting: the figure for `Cn1ncc(S(=O)(=O)N2CC[C@H](C(=O)Nc3ccc4scnc4c3)[C@@H](F)C2)c1Cl` (racemic) is 0.02.

In a further data set the target is T4, Muscarinic acetylcholine receptor M1 (Rattus norvegicus, UniProt P08482).
T4 sequence (P08482 whole entry): T2 sequence (P11229 whole entry) with A5V, T254S, P309S, R320K, A337G, I413V
Put plainly: Antagonist activity at rat muscarinic M1 receptor expressed in CHO cells in the presence of acetylcholine by calcium mobilisation assay. The data set is classed as functional, cell-based.
Details: not given
As for `Cc1ncc(S(=O)(=O)N2CC[C@H](C(=O)Nc3ccc4scnc4c3)[C@@H](F)C2)s1` (racemic), the half-inhibitory concentration (IC50) worked out at 300 nM.
Still for that read-out and setting: the figure for `Cn1ncc(S(=O)(=O)N2CC[C@H](C(=O)Nc3ccc4scnc4c3)[C@@H](F)C2)c1Cl` (racemic) is 110 nM.

Tested on in a further data set: not listed separately
Put plainly: Intrinsic clearance in human. The data set is classed as ADME.
Details: not given
Compound `Cc1ncc(S(=O)(=O)N2CC[C@H](C(=O)Nc3ccc4scnc4c3)[C@@H](F)C2)s1` (racemic) gave a CLint scaled of 6 mL/min/kg.
The same measure, in the same setting: in the case of `C[C@@H]1C[C@@H](C(=O)Nc2ccc3scnc3c2)CCN1S(=O)(=O)c1ccc2c(c1)CCO2` (racemic) it was 114 mL/min/kg; in that of `CC1COc2ccc(S(=O)(=O)N3CCC(C(=O)Nc4ccc5scnc5c4)CC3)cc21` (racemic), 263 mL/min/kg.
The same measure, in the same setting: in the case of `Cn1ncc(S(=O)(=O)N2CC[C@H](C(=O)Nc3ccc4scnc4c3)[C@@H](F)C2)c1Cl` (racemic) it was 6 mL/min/kg.
Still for that read-out and setting: in the case of `C[C@H]1CN(S(=O)(=O)c2ccc3c(c2)CCO3)CC[C@@H]1C(=O)Nc1ccc2scnc2c1` (racemic) it was 79 mL/min/kg; in that of `C[C@@H]1CN(S(=O)(=O)c2ccc3c(c2)CCO3)CC[C@@H]1C(=O)Nc1ccc2scnc2c1` (racemic), 199 mL/min/kg.
Take `C[C@@H]1C[C@H](C(=O)Nc2ccc3scnc3c2)CCN1S(=O)(=O)c1ccc2c(c1)CCO2` (racemic): the CLint scaled was determined as 264 mL/min/kg.

The target in a further data set is T5, Muscarinic acetylcholine receptor M1 (Rattus norvegicus) (UniProt P08482).
T5 sequence (whole entry): T2 sequence (P11229 whole entry) with A5V, T254S, P309S, R320K, A337G, I413V
Briefly: Antagonist activity at rat muscarinic M1 receptor expressed in CHO cells assessed as minimal acetylcholine response by calcium mobilisation assay relative to control. On the set-up: scale not given: the % may be the effect or the level left. The data set is classed as functional, cell-based. The following applies: filed as antagonist.
On to `Cc1ncc(S(=O)(=O)N2CC[C@H](C(=O)Nc3ccc4scnc4c3)[C@@H](F)C2)s1` (racemic), for which the Activity came to 3%.
Still for that read-out and setting: in the case of `Cn1ncc(S(=O)(=O)N2CC[C@H](C(=O)Nc3ccc4scnc4c3)[C@@H](F)C2)c1Cl` (racemic) it was 3%.

The target in a further data set is T6, Muscarinic acetylcholine receptor M5 (Homo sapiens, UniProt P08912).
T6 sequence (P08912 whole entry): T1 sequence (whole entry)
Briefly: Antagonist activity at human muscarinic M5 receptor expressed in CHO cells in the presence of acetylcholine by calcium mobilisation assay. It counts as functional, cell-based.
Details: not given
`O=C(Nc1ccc2scnc2c1)C1CCN(S(=O)(=O)c2ccc(Cl)s2)CC1`: the IC50 was 2800 nM.
As to `Cc1ncc(S(=O)(=O)N2CC[C@H](C(=O)Nc3ccc4scnc4c3)[C@@H](F)C2)s1` (racemic), the IC50 came out at 13 nM.
`C[C@@H]1C[C@@H](C(=O)Nc2ccc3scnc3c2)CCN1S(=O)(=O)c1ccc2c(c1)CCO2` (racemic): the IC50 was found to be 94 nM.
As for `CC1COc2ccc(S(=O)(=O)N3CCC(C(=O)Nc4ccc5scnc5c4)CC3)cc21` (racemic), the IC50 came to 109 nM.
For the compound `Cn1ncc(S(=O)(=O)N2CC[C@H](C(=O)Nc3ccc4scnc4c3)[C@@H](F)C2)c1Cl` (racemic), the IC50 amounted to 10 nM.
Still for that read-out and setting: the figure for `C[C@H]1CN(S(=O)(=O)c2ccc3c(c2)CCO3)CC[C@@H]1C(=O)Nc1ccc2scnc2c1` (racemic) is 1530 nM; for `CC1Cc2cc(S(=O)(=O)N3CCC(C(=O)Nc4ccc5scnc5c4)CC3)ccc2O1` (racemic) it is over 10000 nM; for `C[C@@H]1CN(S(=O)(=O)c2ccc3c(c2)CCO3)CC[C@@H]1C(=O)Nc1ccc2scnc2c1` (racemic) it is 419 nM.
On the same count and under the same terms, in the case of `C[C@@H]1C[C@H](C(=O)Nc2ccc3scnc3c2)CCN1S(=O)(=O)c1ccc2c(c1)CCO2` (racemic) it was 134 nM.
